Common to all, as to format: biochemical
For test [1], the target named is T1, FLT3 (Homo sapiens, UniProt P36888).
T1 construct: purchased Invitrogen PV3182
T1 sequence (P36888 564-993 limits assumed): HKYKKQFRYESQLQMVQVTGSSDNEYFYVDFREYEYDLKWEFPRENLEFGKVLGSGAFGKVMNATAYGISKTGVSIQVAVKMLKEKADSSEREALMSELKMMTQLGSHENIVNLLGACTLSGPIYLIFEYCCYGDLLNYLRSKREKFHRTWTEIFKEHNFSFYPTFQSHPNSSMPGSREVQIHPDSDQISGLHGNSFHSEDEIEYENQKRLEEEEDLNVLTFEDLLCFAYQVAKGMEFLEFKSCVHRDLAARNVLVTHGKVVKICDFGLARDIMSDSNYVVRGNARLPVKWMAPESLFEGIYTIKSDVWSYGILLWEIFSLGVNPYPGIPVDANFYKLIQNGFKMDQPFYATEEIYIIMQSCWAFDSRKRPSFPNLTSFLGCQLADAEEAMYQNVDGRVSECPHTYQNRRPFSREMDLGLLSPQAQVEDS
The test is described as follows: FLT3 kinase ADP Hunter Plus assay. The note with it: for FLT3 experimental hit classification: hit definition IC50 < 10µM. The procedure: Kinase activity was measured with the commercial ADP Hunter™ Plus assay (DiscoveRx Ref. #33-016), a homogeneous assay measuring ADP accumulation, as a universal product of kinase activity. The assay was conducted following the manufacturer’s recommendations and adapting the protein and substrate concentrations for optimal conditions. The kinase assay buffer was 15 mM HEPES, pH 7.4, 20 mM NaCl, 1 mM EGTA, 0.02% Tween-20, 10 mM MgCl2 and 0.1 mg/ml BGG (bovine γ-globulin). All PIM kinase assays were performed with 100 µM ABLtide ([…]) from GenScript as the peptide substrate and 100 µM ATP. Protein concentration (from Invitrogen, PV3182) was 0.4 ng/µl. To calculate the IC50 of the ETP-compounds, serial 1∶3 dilutions were prepared and the reaction was started with the addition of ATP. The reaction was incubated for 1 h at 37°C. Reagents A and B (DiscoveRx) were sequentially added to the wells, and the plates were incubated for 30 min at 25°C. Fluorescence counts were read in an EnVision 2104 Multilabel Reader (Perkin Elmer) with the recommended settings (544 and 580 nm as the excitation and emission wavelengths, respectively). Values were plotted against the inhibitor concentrations and fit to a sigmoid dose–response curve using ActivityBase software.

In test [2] the target is AKT1 (Homo sapiens, UniProt P31749). The test is described as follows: ProQinase kinase panel, % inhibition at fixed concentration. The note with it: read-out: AKT1 percentage of inhibition. The protocol:
(§1) Once compounds 7 and 8 were synthesized, a pairwise comparison was performed to strictly evaluate the real impact of this fragment-hopping where imidazopyridazine is replaced by triazolopyridine.

Test [3] concerns the target T2, ARK5 (Homo sapiens, UniProt O60285).
T2 sequence (O60285 1-661): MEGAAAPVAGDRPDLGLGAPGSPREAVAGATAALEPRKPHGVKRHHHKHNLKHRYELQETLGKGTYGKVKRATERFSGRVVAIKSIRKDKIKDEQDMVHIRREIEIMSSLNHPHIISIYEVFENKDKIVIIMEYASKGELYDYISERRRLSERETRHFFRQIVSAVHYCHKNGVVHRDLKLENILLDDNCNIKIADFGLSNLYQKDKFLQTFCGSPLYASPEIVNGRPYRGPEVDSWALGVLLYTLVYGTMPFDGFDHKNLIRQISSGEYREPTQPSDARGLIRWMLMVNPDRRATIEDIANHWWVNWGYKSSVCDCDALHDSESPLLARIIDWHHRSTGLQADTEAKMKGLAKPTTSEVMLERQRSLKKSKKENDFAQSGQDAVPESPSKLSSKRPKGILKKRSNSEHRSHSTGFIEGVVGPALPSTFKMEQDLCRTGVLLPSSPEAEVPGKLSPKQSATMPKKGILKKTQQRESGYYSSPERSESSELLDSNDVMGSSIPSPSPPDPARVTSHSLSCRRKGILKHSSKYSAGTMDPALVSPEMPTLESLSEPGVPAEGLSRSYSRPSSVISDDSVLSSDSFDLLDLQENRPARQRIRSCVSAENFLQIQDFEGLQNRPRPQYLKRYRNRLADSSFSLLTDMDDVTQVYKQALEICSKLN
The description is as above. The procedure:
as §1

In test [4] the target is B-RAF-V600E (Homo sapiens, UniProt P15056, V600E). Described as above. The procedure: as §1
The target in test [5] is CK1-α1 (Homo sapiens, UniProt P48729). The test is described as above. The settings on record: for inhibition at 10 µM: inhibitor at 10 µM. The procedure: as §1
Test [6] addresses DYRK1A (Homo sapiens, UniProt Q13627). Described as above. The settings on record: for inhibition at 10 µM: inhibitor at 10 µM. The protocol:
as §1

Test [7] concerns the target EGF-R (Homo sapiens, UniProt P00533). Described as above. The protocol:
as §1

For test [8], the target named is FGF-R1 (Homo sapiens, UniProt P11362). The test is described as above. The settings on record: for inhibition at 10 µM: inhibitor at 10 µM. The protocol: as §1
The target of test [9] is IGF1-R (Homo sapiens, UniProt P08069). Described as above. The note with it: read-out: IGF1-R percentage of inhibition. The protocol:
as §1

Test [10] deals with JAK2 (Homo sapiens, UniProt O60674). The description is as above. The settings on record: average of two data points, read-out: JAK2 percentage of inhibition; for inhibition at 10 µM: inhibitor at 10 µM. The protocol: as §1
In test [11] the target is MET (Homo sapiens, UniProt P08581). The test is described as above. The note with it: read-out: MET percentage of inhibition. The protocol: as §1
The target of test [12] is PAK1 (Homo sapiens, UniProt Q13153). The description is as above. The settings on record: read-out: PAK1 percentage of inhibition. The protocol: as §1
The target in test [13] is PDGFR-α (Homo sapiens, UniProt P16234). Described as above. The protocol: as §1
For test [14], the target named is RPS6KA1 (Homo sapiens, UniProt Q15418). Described as above. The protocol:
as §1

[15] abbreviates: ADP Hunter Plus, 100 µM ATP, read-out: FLT-3 IC50.
Setting [16] is: inhibitor at 10 µM, average of two data points.
Where [17] appears, read: compound 7 vs compound 1, 10 µM.
Where [18] appears, read: average of two data points, read-out: CK1-α1 percentage of inhibition.
The mark [19] stands for this setting: average of two data points, read-out: DYRK1A percentage of inhibition.
Setting [20] is: average of two data points, read-out: FGF-R1 percentage of inhibition.
Setting [21] is: inhibitor at 5 µM, average of two data points.

Read-outs that look alike come from different tables or passages of the source. Where only a bound is given, the exact number is not on record here.

Sequence of PAK1 (Q13153 whole entry): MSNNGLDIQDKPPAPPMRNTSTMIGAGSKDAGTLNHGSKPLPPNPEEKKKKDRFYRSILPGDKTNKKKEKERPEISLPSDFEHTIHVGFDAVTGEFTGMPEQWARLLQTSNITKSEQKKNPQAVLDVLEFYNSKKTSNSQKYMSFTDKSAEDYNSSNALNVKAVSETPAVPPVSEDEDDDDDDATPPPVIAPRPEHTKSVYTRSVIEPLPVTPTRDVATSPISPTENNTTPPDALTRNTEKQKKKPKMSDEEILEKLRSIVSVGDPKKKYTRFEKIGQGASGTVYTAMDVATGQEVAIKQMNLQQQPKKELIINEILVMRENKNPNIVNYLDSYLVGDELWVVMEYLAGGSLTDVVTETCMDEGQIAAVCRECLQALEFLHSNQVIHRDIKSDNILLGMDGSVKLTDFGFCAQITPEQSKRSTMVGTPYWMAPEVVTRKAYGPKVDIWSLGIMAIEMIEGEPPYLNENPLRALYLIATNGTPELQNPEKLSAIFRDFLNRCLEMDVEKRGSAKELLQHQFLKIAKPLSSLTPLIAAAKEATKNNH
Sequence of JAK2 (O60674 whole entry, species assumed): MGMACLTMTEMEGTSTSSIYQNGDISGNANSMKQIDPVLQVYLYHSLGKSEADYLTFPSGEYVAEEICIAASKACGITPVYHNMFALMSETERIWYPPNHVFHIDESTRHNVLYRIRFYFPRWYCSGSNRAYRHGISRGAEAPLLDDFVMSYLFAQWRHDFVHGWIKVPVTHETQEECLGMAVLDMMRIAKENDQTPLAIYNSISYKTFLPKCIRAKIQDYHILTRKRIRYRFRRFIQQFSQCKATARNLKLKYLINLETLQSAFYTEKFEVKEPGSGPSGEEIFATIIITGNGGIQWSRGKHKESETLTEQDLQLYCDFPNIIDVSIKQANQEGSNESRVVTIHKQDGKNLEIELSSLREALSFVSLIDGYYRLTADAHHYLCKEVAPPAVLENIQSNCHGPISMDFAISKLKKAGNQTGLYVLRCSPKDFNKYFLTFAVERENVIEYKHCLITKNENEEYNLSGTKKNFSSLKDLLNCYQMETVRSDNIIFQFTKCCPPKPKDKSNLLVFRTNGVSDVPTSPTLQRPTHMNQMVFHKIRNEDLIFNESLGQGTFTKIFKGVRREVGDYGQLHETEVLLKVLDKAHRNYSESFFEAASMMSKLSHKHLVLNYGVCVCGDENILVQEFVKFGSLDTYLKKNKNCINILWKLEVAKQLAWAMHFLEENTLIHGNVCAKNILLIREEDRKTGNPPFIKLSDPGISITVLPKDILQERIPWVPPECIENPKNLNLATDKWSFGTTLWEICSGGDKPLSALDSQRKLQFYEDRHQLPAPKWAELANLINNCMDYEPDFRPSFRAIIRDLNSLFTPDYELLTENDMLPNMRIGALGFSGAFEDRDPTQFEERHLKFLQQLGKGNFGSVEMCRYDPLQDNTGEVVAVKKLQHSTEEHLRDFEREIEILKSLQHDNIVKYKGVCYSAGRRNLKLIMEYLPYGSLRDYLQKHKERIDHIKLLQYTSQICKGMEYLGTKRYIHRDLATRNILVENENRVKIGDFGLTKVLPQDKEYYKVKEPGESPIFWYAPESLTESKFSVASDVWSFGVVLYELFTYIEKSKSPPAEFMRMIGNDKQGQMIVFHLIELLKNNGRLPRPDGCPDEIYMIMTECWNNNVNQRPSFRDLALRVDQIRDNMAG
Sequence of MET (P08581 25-1390): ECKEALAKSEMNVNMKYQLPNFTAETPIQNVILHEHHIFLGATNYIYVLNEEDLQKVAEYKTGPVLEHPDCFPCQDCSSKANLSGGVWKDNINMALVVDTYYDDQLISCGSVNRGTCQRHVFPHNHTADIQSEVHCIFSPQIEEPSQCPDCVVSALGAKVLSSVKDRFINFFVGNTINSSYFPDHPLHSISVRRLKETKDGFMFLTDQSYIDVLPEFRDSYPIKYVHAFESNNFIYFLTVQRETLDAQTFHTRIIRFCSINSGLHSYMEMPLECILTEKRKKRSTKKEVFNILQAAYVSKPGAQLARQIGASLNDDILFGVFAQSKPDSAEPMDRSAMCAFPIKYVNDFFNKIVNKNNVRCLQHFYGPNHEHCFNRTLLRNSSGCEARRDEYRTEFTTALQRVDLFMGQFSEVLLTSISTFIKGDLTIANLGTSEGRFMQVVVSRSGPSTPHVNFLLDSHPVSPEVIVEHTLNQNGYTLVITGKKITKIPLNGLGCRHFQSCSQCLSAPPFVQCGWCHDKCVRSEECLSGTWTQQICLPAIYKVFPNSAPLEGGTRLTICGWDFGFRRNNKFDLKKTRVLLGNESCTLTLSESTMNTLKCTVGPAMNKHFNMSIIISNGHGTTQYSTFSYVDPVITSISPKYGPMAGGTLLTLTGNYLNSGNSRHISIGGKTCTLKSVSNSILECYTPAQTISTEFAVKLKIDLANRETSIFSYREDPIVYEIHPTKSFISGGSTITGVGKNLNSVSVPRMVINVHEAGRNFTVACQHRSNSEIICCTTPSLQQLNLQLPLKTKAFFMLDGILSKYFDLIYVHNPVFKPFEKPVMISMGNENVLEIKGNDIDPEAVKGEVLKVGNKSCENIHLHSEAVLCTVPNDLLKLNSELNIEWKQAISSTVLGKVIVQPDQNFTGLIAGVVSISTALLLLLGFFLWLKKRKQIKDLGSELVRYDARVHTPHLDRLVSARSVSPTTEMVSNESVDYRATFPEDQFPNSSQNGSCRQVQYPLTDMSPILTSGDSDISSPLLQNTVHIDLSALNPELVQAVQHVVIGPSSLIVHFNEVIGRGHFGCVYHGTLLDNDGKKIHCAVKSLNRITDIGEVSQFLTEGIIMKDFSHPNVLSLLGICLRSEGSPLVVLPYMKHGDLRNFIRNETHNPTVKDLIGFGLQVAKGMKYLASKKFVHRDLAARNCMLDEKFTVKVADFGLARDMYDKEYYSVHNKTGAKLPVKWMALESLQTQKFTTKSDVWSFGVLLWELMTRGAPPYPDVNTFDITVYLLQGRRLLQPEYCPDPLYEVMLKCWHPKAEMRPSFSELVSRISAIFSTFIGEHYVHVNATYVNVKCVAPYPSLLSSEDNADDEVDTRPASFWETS
Sequence of B-RAF-V600E (P15056 whole entry V600E): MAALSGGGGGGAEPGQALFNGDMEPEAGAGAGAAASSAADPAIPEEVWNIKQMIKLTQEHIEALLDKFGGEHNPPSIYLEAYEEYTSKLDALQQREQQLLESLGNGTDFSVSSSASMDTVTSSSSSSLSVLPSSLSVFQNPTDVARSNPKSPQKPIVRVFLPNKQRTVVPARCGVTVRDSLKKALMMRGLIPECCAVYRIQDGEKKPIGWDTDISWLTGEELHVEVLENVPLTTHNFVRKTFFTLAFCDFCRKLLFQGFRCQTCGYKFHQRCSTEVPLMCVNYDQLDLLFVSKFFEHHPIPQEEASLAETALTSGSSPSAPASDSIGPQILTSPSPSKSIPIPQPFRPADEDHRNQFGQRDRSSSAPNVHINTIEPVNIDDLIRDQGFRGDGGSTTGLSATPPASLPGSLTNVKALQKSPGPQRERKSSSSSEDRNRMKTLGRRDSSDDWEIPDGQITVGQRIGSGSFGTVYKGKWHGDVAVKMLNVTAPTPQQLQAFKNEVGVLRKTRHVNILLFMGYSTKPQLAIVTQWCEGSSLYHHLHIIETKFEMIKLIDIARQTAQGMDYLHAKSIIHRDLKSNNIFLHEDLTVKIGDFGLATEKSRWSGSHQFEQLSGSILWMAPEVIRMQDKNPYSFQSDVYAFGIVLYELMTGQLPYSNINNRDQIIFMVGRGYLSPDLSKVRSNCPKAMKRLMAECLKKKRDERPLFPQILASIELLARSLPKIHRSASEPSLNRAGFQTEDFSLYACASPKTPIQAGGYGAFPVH
Sequence of FGF-R1 (P11362 22-822, species assumed): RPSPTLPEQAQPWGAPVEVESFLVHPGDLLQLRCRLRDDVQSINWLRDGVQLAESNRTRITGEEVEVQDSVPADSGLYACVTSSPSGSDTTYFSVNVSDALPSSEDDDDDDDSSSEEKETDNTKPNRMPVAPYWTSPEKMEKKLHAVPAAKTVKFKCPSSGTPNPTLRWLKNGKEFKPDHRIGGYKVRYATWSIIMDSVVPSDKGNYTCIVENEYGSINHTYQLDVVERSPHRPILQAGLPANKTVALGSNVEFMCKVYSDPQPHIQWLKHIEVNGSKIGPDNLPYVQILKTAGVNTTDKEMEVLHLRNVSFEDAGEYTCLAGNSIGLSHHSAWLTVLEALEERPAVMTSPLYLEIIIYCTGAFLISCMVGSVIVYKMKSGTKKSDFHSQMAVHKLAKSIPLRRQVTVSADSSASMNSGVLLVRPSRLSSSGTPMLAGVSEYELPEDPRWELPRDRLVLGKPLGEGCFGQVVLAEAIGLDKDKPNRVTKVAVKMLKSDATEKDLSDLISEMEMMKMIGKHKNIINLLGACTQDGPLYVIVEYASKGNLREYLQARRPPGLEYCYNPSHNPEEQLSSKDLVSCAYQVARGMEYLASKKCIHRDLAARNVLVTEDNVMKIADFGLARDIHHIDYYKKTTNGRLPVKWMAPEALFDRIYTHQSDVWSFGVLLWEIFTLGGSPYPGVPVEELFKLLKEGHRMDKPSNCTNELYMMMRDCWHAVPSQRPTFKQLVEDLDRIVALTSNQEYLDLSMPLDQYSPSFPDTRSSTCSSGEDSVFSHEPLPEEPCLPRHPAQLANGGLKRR
Sequence of AKT1 (P31749 whole entry, species assumed, the tested form may be a part): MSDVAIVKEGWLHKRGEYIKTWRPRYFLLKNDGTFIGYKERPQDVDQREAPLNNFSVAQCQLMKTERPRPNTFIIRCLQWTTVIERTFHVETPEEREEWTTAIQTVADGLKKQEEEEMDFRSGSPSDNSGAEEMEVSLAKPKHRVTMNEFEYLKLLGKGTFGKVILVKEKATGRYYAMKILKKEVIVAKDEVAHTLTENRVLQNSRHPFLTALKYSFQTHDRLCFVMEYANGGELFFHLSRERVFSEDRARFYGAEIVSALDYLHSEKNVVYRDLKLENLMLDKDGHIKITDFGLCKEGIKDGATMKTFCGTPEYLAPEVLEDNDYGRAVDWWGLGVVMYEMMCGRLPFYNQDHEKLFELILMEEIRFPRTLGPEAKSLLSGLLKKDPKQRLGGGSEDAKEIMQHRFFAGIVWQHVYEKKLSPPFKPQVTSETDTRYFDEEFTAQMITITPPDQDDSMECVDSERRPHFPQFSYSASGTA

Broadly, the IC50 is the concentration needed to halve the response being measured. A word on the inhibition: it is the share of the control response that was lost under treatment. As for `Oc1ccc(-n2nnc3ccc(NCc4ccc(F)cc4)nc32)cc1` [Compound 7, 4-[5-(4-Fluoro-benzylamino)-[1], [2], [3]triazolo[4,5-b]pyridin-3-yl]-phenol], the IC50 in test [1] (setting [15]) is 1840 nM. Further, the “FLT3 experimental hit classification” value in test [1] is given as “hit”. Besides, the inhibition at 10 µM is 0% in test [2] (setting [16]); 13% in test [3] (inhibitor at 10 µM, average of two data points, read-out: ARK5 percentage of inhibition); 8% in test [4] (inhibitor at 10 µM, average of two data points, read-out: B-RAF-V600E percentage of inhibition); 8% in test [5] (setting [18]); greater than 70% in [6] (setting [19]); 8% in test [7] (inhibitor at 10 µM, average of two data points, read-out: EGF-R percentage of inhibition). Moreover, the inhibition at 10 µM in [8] (setting [20]) was determined as 19%; in [9] (setting [16]), 9%; in test [10] it was 30%; in test [11] (setting [16]), 21%; in [12] (setting [16]), 5%; in test [13] (inhibitor at 10 µM, average of two data points, read-out: PDGFR-α percentage of inhibition), 53%. The inhibition at 10 µM in test [14] (inhibitor at 10 µM, average of two data points, read-out: RPS6KA1 percentage of inhibition) turned out to be 45%. Further, the “ARK5 improvement in percentage of inhibition” value in test [3] (setting [17]) is listed as “c (This designation indicates that the improvement in percentage of inhibition was equal or greater than 50%)”. Further, the “B-RAF-V600E improvement in percentage of inhibition” value in test [4] (setting [17]) is recorded as “b (This designation indicates that the improvement in percentage of inhibition was equal or greater than 25%)”. The “CK1-α1 improvement in percentage of inhibition” value in test [5] (setting [17]) was “b (This designation indicates that the improvement in percentage of inhibition was equal or greater than 25%)”. The “DYRK1A reduction of percentage of inhibition” value in test [6] (compound 7 compared to compound 1, 10 µM) was “more than 25%”. For the same compound, the “DYRK1A improvement in percentage of inhibition” value in test [6] (setting [17]) was “b (This designation indicates that the improvement in percentage of inhibition was equal or greater than 25%)”. For the same compound, the “EGF-R improvement in percentage of inhibition” value in test [7] (setting [17]) is listed as “b (This designation indicates that the improvement in percentage of inhibition was equal or greater than 25%)”. In [8] (setting [17]), the “FGF-R1 improvement in percentage of inhibition” value is reported as “c (This designation indicates that the improvement in percentage of inhibition was equal or greater than 50%)”. Moreover, the “PDGFR-α improvement in percentage of inhibition” value in test [13] (setting [17]) was “b (This designation indicates that the improvement in percentage of inhibition was equal or greater than 25%)”. The “RPS6KA1 improvement in percentage of inhibition” value in test [14] (setting [17]) is listed as “c (This designation indicates that the improvement in percentage of inhibition was equal or greater than 50%)”.
With `CN1CCC(CNc2ccc3ncc(-c4cccc(OC(F)(F)F)c4)n3n2)CC1` [Compound 3, reference compound], in [1], the IC50 was 5 nM. For the same compound, the inhibition at 10 µM in [2] was determined as 0%; in test [3] (read-out: ARK5 percentage of inhibition), 42%; in test [4] (read-out: B-RAF-V600E percentage of inhibition), 41%; in test [5] (setting [18]), 0%; in test [6] (setting [19]), 19%; in test [7] (read-out: EGF-R percentage of inhibition), 32%. Further, the inhibition at 10 µM is 65% in [8] (setting [20]); 53% in [9]; 3% in test [10]; 12% in test [11]; 92% in test [13] (read-out: PDGFR-α percentage of inhibition); 48% in test [14] (read-out: RPS6KA1 percentage of inhibition). Moreover, the inhibition at 5 µM in test [12] is 8%.
For `CN1CCC(CNc2ccc3nnn(-c4cccc(OC(F)(F)F)c4)c3n2)CC1` [Compound 8, (1-Methyl-piperidin-4-ylmethyl)-[3-(3-trifluoromethoxy-phenyl)-3H-[1], [2], [3]triazolo[4,5-b]pyridin-5-yl]-amine], in [1] (setting [15]), the IC50 amounted to 1320 nM. Moreover, the “FLT3 experimental hit classification” value in [1] is “hit”. The inhibition at 5 µM in test [2] (setting [21]) is 0%; in test [3] (inhibitor at 5 µM, average of two data points, read-out: ARK5 percentage of inhibition) it was 18%; in [4] (inhibitor at 5 µM, average of two data points, read-out: B-RAF-V600E percentage of inhibition), 10%; in test [5] (inhibitor at 5 µM, average of two data points, read-out: CK1-α1 percentage of inhibition), 8%; in test [6] (inhibitor at 5 µM, average of two data points, read-out: DYRK1A percentage of inhibition), 3%; in [7] (inhibitor at 5 µM, average of two data points, read-out: EGF-R percentage of inhibition) it was 18%. Besides, the inhibition at 5 µM in test [8] (inhibitor at 5 µM, average of two data points, read-out: FGF-R1 percentage of inhibition) was 16%; in test [9] (setting [21]) it was 25%; in [10] (inhibitor at 5 µM) it was 0%; in test [11] (setting [21]), 6%; in test [12] (setting [21]), 2%; in [13] (inhibitor at 5 µM, average of two data points, read-out: PDGFR-α percentage of inhibition), 20%. The inhibition at 5 µM in [14] (inhibitor at 5 µM, average of two data points, read-out: RPS6KA1 percentage of inhibition) is 37%. Moreover, in [13] (compound 8 (5 µM) versus compound 3 (10 µM)), the “PDGFR-α increment in percentage of inhibition” value is greater than 50%. Also, the “PDGFR-α improvement in percentage of inhibition” value in test [13] (compound 8 (5 µM) vs compound 3 (10 µM)) was “c (This designation indicates that the improvement in percentage of inhibition was greater than 50%)”.
Consider `Oc1ccc(-c2cnc3ccc(NCc4ccc(F)cc4)nn23)cc1` [Compound 1], for which the IC50 in test [1] (setting [15]) is 1 nM.
